Assay results as given in patent US4350695A, “Antihistaminic and bronchospasmolytic triazoloquinazolinones” (Roussel Uclaf, priority 1980, dated 1982).
Values after ≈ are worked out from the molar mass of the structure shown. Counter-ions that a name gives are not always drawn.

Experiments:
[1] = test system: histamine-induced bronchoconstriction; assay: Effects on histamine-induced bronchoconstriction in anaesthetised guinea pigs; format: in vivo, guinea pig; details: for ED50: Cavia porcellus, iv, male anaesthetised guinea pigs, administered via cannulated left jugular vein immediately before histamine, read-out: ED50 (effective dose required to reduce the histamine-induced constriction in lung air volume by 50%); for antagonising the bronchoconstricting activity of histamine: anaesthetised guinea pigs, result in words
Procedure: A. Effects on histamine-induced bronchoconstriction in anaesthetised guinea pigs
Male guinea pigs weighing 300-400 grams, after overnight starving, were anaesthetised with intraperitoneal administration of 0.7 ml/100 g of urethane. The preparation was as described by Konsett et al [Arch. exp. Path. Pharmakol. […] (1940), p. 71] with a ventilatory pump stroke volume varying between 4 to 6 ml of air (adjusted for each animal) at a stroke rate of 80 per minute to maintain a lung inflation pressure of 7.5 cm of H2 O. Blood pressure was measured via a cannula in the right carotid artery connected to a Statham blood pressure transducer and a Devices M2 recorder. The test compounds were administered via the cannulated left jugular vein and washed in with 0.1 ml of 0.9% w/w sodium chloride in distilled water. The test product was administered immediately before the histamine which was used as the agonist.
Respiratory changes were recorded via a differential transducer connected to an SE 905 transducer/converter which in turn was connected to a Devices M2 recorder. The results given in Table I show the effective dose of each of the test compounds required to reduce the histamine-induced constriction in lung air volume by 50%.

[2] = test system: isolated guinea pig tracheas; assay: Effect on isolated guinea pig tracheas (histamine-induced contraction); format: cell-based; details: for EC50: Cavia porcellus, spirally cut trachea, Krebs Henseleit solution, 37° C., histamine as agonist, read-out: EC50 (amount required to reduce the histamine-induced contraction of the guinea pig trachea by 50%)
Procedure: B Effect on isolated guinea pig tracheas
Guinea pigs were killed by a blow on the back of the neck and the tracheas were excised, cut spirally and suspended in Krebs Henseleit solution at 37° C. and aerated with 95% O2 +5% CO2. Histamine was used as the agonist.

Structure (SMILES) | ED50 [1] [mg/kg] | EC50 [2] [µg/mL] | other results
O=c1c2ccccc2nc2n(CCCCN3CCCCC3)cnn12 [Example 24] | 0.7 | 36 (≈ 111 µM) | 
O=c1c2ccccc2nc2n(CCCN3CCC(O)(c4ccccc4)CC3)cnn12 [Example 8] | 2 |  | 
O=c1c2ccccc2nc2n(CCCN3CCN(c4cccc(Cl)c4)CC3)cnn12 [Example 6] | 0.03 | 0.25 (≈ 0.591 µM) | 
O=c1c2ccccc2nc2n(CCCN3CCCCC3)cnn12 [Example 7] | 0.3 | 15 (≈ 48.2 µM) | 
CCOC(=O)N1CCN(CCCn2cnn3c(=O)c4cc(C)ccc4nc23)CC1 [Example 34, 1-{3-[4-(ethoxycarbonyl)-piperazin-1-yl]-propyl}-7-methyl-[1,2,4]-triazolo-[5,1-b]-quinazolin-5-(1H)-one] | 0.01 |  | 
O=c1c2ccccc2nc2n(CCCCN3CCN(c4cccc(Cl)c4)CC3)cnn12 [Example 1 & 2, 1-{4-[4-(m-chlorophenyl)-piperazin-1-yl]-butyl}-triazolo-[1,2,4][5,1-b]-quinazolin-5(1H)-one dihydrochloride] | 0.02 | 0.1 | antagonising the bronchoconstricting activity of histamine [1]: very effective
O=c1c2ccccc2nc2n(CCCCN3CCN(C4CCCCC4)CC3)cnn12 [Example 5] | 0.9 | 10.2 (≈ 25 µM) | 
O=c1c2cc([N+](=O)[O-])ccc2nc2n(CCCCN3CCN(c4cccc(Cl)c4)CC3)cnn12 [Example 10] | 0.1 |  | 
O=c1c2ccccc2nc2n(CCCCN3CCN(c4cccc(Cl)c4)CC3)cnn12 [1 and 2] |  |  | antagonistic effect, persistence ([2]; isolated guinea pig trachea, after compound washed out, result in words): very prolonged; time for which antagonistic effect could be demonstrated after the compound had been washed out ([2]; isolated guinea pig trachea, after wash-out): up to 30 minutes; antagonist of histamine induced contractions ([2]; isolated guinea pig trachea, result in words): potent antagonist
O=c1c2ccccc2nc2n(CCCCCN3CCN(c4cccc(Cl)c4)CC3)cnn12 [Example 11] | 0.05 |  | 
O=c1c2ccccc2nc2n(CCCCN3CCC(O)(c4ccccc4)CC3)cnn12 [Example 4] | 0.3 | 34 (≈ 81.4 µM) | 
CCOC(=O)N1CCN(CCCCn2cnn3c(=O)c4cc(C)ccc4nc23)CC1 [Example 3, 1-{4-[4-(ethoxycarbonyl)-piperazin-1-yl]-butyl}-7-methyl[1,2,4] triazolo [5,1-b]-quinazolin-5(1H)-one dihydrochloride] | 0.008 |  | antagonising the bronchoconstricting activity of histamine [1]: very effective
O=c1c2ccccc2nc2n(CCCCCN3CCCCC3)cnn12 [Example 12] | 1 | 16 (≈ 47.1 µM) | 
CCOC(=O)N1CCN(CCCCn2cnn3c(=O)c4ccccc4nc23)CC1 [Example 15, 1-{4-[4-(ethoxycarbonyl)-piperazin-1-yl]-butyl}-[1,2,4]-triazolo-[5,1-b]-quinazolin-5-(1H)-one] | 0.05 |  | 
